Results reported in DBAASP.
≈ marks a conversion by molar mass, not a printed value. Values belong to the molecule of their own block, whether it stands above or below them.

Legend:
Experiment in all cases: ≥ marks a high value that may be exact or a test limit, other limits are often not marked, values filed in µg/mL are converted to µM
[1] = tested on: Staphylococcus aureus ATCC 25923
[2] = tested on: Escherichia coli ATCC 8739
[3] = tested on: Staphylococcus aureus
[4] = tested on: Escherichia coli K-12
[5] = tested on: Staphylococcus aureus ATCC 43300
[6] = tested on: Staphylococcus aureus ATCC 700699
[7] = tested on: Streptococcus mutans
[8] = tested on: Pseudomonas aeruginosa ATCC 27853
[9] = tested on: Escherichia coli ATCC 25922
[10] = tested on: Staphylococcus aureus ATCC 29213
[11] = tested on: Klebsiella pneumoniae ATCC 700603
[12] = tested on: Staphylococcus aureus ATCC 33591
[13] = tested on: Escherichia coli BW25113
[14] = tested on: Staphylococcus aureus ATCC 12600
[15] = tested on: Escherichia coli ATCC 11775
[16] = tested on: Salmonella enterica subsp. enterica serovar Typhimurium C77-31
[17] = tested on: Staphylococcus epidermidis ATCC 12228
[18] = tested on: Enterococcus faecalis ATCC 29212
[19] = tested on: Salmonella enterica subsp. enterica serovar Pullorum C79-13

Compound: CC[C@H](C)[C@H](NC(=O)[C@H](CCCCN)NC(=O)[C@H](Cc1ccc(O)cc1)NC(=O)[C@H](Cc1ccccc1)NC(=O)[C@H](CCC(N)=O)NC(=O)[C@H](CO)NC(=O)[C@H](CCC(=O)O)NC(=O)[C@H](CCCN=C(N)N)NC(=O)[C@H](CC(N)=O)NC(=O)[C@@H]1CCCN1)C(=O)N[C@@H](CC(C)C)C(=O)N[C@@H](CCCN=C(N)N)C(=O)N[C@@H](CCCCN)C(=O)N[C@H](C(=O)N[C@@H](CC(C)C)C(=O)N[C@@H](CO)C(=O)N[C@@H](CCCCN)C(=O)N[C@H](C(=O)N[C@H](C(=O)O)C(C)C)[C@@H](C)CC)[C@@H](C)CC [PNRESQFYKILRKILSKIV]
- MIC [1]: 27.4 µM (≈ 64 µg/mL)
- MIC [2]: 6.86 µM (≈ 16 µg/mL)

Compound: CC(C)C[C@H](NC(=O)[C@H](CCCN=C(N)N)NC(=O)[C@H](CCCCN)NC(=O)[C@H](C)N)C(=O)N[C@@H](CC(C)C)C(=O)N[C@@H](CCCCN)C(=O)N[C@H](C(=O)N[C@@H](CC(C)C)C(=O)N[C@@H](CCCCN)C(=O)N[C@@H](CCCN=C(N)N)C(=O)N[C@@H](Cc1ccccc1)C(N)=O)C(C)C [AKRLLKVLKRF]
- MIC [7]: 16.5 µM (≈ 22.6 µg/mL)

Compound: CC[C@H](C)[C@H](NC(=O)[C@@H]1CCCN1C(=O)[C@H](CCCN=C(N)N)NC(=O)[C@H](CCCN=C(N)N)NC(=O)[C@H](Cc1c[nH]c2ccccc12)NC(=O)[C@@H](N)CCCN=C(N)N)C(=O)N[C@@H](CCCN=C(N)N)C(=O)N[C@@H](CCCN=C(N)N)C(=O)N[C@@H](CCCN=C(N)N)C(=O)N1CCC[C@H]1C(=O)N[C@H](C(=O)N[C@@H](CCCN=C(N)N)C(=O)N1CCC[C@H]1C(=O)N1CCC[C@H]1C(=O)N[C@@H](Cc1ccccc1)C(=O)N[C@@H](Cc1ccc(O)cc1)C(=O)N1CCC[C@H]1C(=O)O)[C@@H](C)CC [RWRRPIRRRPIRPPFYP]
- MIC [13]: 8 µM (≈ 18.6 µg/mL)

Compound: CC[C@H](C)[C@H](NC(=O)[C@@H]1CCCN1C(=O)[C@H](Cc1c[nH]c2ccccc12)NC(=O)[C@H](CCCN=C(N)N)NC(=O)[C@H](Cc1c[nH]c2ccccc12)NC(=O)[C@@H](N)CCCN=C(N)N)C(=O)N[C@@H](CCCN=C(N)N)C(=O)N[C@@H](CCCN=C(N)N)C(=O)N[C@@H](CCCN=C(N)N)C(=O)N1CCC[C@H]1C(=O)N[C@H](C(=O)N[C@@H](CCCN=C(N)N)C(=O)N1CCC[C@H]1C(=O)N1CCC[C@H]1C(=O)N[C@@H](Cc1c[nH]c2ccccc12)C(=O)N[C@@H](Cc1ccc(O)cc1)C(=O)N[C@@H](CCCN=C(N)N)C(=O)O)[C@@H](C)CC [RWRWPIRRRPIRPPWYR]
- MIC [13]: 4 µM (≈ 9.79 µg/mL)

Compound: CC(C)C[C@H](NC(=O)[C@H](C)NC(=O)[C@H](CC(C)C)NC(=O)[C@@H]1CCCN1C(=O)[C@H](Cc1ccccc1)NC(=O)[C@@H](N)Cc1ccccc1)C(=O)N[C@@H](CC(C)C)C(=O)N[C@H]1CSSC[C@@H](C(=O)O)NC(=O)[C@H](CCCCN)NC(=O)[C@H](CCCCN)NC(=O)[C@H](Cc2ccccc2)NC(=O)[C@H](C(C)C)NC(=O)[C@H](CCCCN)NC1=O [FFPLALLCKVFKKC]
- MIC [14]: ≥ 100 µM
- MIC [15]: 25 µM (≈ 41.4 µg/mL)

Compound: CC[C@H](C)[C@H](NC(=O)[C@H](Cc1ccccc1)NC(=O)[C@H](CS)NC(=O)[C@@H](NC(=O)[C@H](CO)NC(=O)[C@@H](N)Cc1ccc(O)cc1)[C@@H](C)O)C(=O)N[C@@H](CCSC)C(=O)NCC(=O)NCC(=O)NCC(=O)N[C@@H](Cc1c[nH]c2ccccc12)C(=O)N[C@@H](CCCCN)C(=O)N[C@@H](Cc1c[nH]c2ccccc12)C(=O)N[C@@H](CCCCN)C(=O)N[C@@H](Cc1c[nH]c2ccccc12)C(=O)N[C@@H](CCC(=O)O)C(=O)N[C@@H](CC(N)=O)C(=O)NCC(=O)N[C@@H](CCCCN)C(=O)N[C@@H](Cc1c[nH]c2ccccc12)C(=O)N[C@@H](CCCCN)C(=O)N[C@@H](Cc1c[nH]c2ccccc12)C(=O)N[C@@H](CCCCN)C(=O)N[C@@H](Cc1c[nH]c2ccccc12)C(=O)O [YSTCFIMGGGWKWKWENGKWKWKW]
- MIC [16]: ≥ 128 µM
- MIC [9]: 32 µM (≈ 99 µg/mL)
- MIC [17]: > 128 µM
- MIC [10]: > 128 µM
- MIC [18]: > 128 µM
- MIC [19]: ≥ 128 µM

Compound: CC[C@H](C)[C@H](NC(=O)[C@@H]1CCCN1C(=O)[C@H](CCCN=C(N)N)NC(=O)[C@H](CCCN=C(N)N)NC(=O)[C@H](Cc1ccccc1)NC(=O)[C@@H](N)CCCN=C(N)N)C(=O)N[C@@H](CCCN=C(N)N)C(=O)N[C@@H](CCCN=C(N)N)C(=O)N[C@@H](CCCN=C(N)N)C(=O)N1CCC[C@H]1C(=O)N[C@H](C(=O)N[C@@H](CCCN=C(N)N)C(=O)N1CCC[C@H]1C(=O)N1CCC[C@H]1C(=O)N[C@@H](Cc1ccccc1)C(=O)N[C@@H](Cc1c[nH]c2ccccc12)C(=O)N[C@@H](CCCN=C(N)N)C(=O)O)[C@@H](C)CC [RFRRPIRRRPIRPPFWR]
- MIC [13]: 8 µM (≈ 18.9 µg/mL)

Compound: NCCCC[C@H](NC(=O)[C@H](Cc1c[nH]c2ccccc12)NC(=O)[C@H](Cc1c[nH]c2ccccc12)NC(=O)[C@H](CCCCN)NC(=O)[C@@H](N)CCCN=C(N)N)C(N)=O [RKWWK]
- MIC [14]: ≥ 77.8 µM
- MIC [9]: > 77.8 µM

More lines, now with the values ahead:

- MIC [3]: 168 µM (≈ 509 µg/mL)
- MIC [1]: 168 µM (≈ 509 µg/mL)
- MIC [4]: ≥ 80 µM
- MIC [5]: 168 µM (≈ 509 µg/mL)
- MIC [6]: ≥ 336 µM
Compound: CC[C@H](C)[C@H](N)C(=O)NCC(=O)N[C@@H](CCCCN)C(=O)N[C@@H](CCC(=O)O)C(=O)N[C@@H](Cc1ccccc1)C(=O)N[C@@H](CCCCN)C(=O)N[C@@H](CCCNC(=N)N)C(=O)N[C@H](C(=O)N[C@H](C(=O)N[C@@H](CCC(N)=O)C(=O)N[C@@H](CCCNC(=N)N)C(=O)N[C@H](C(=O)N[C@@H](CCCCN)C(=O)N[C@@H](CC(=O)O)C(=O)N[C@@H](Cc1ccccc1)C(=O)N[C@@H](CC(C)C)C(=O)N[C@@H](CCCNC(=N)N)C(=O)N[C@@H](CC(N)=O)C(=O)N[C@@H](CC(C)C)C(=O)N[C@H](C(=O)N1CCC[C@H]1C(=O)N[C@@H](CCCNC(=N)N)C(=O)N[C@H](C(=O)N[C@@H](CCC(=O)O)C(=O)N[C@H](C=O)CO)[C@@H](C)O)C(C)C)[C@@H](C)CC)C(C)C)[C@@H](C)CC [IGKEFKRIVQRIKDFLRNLVPRTES]

- MIC [1]: > 135 µM
- MIC [2]: ≥ 135 µM
Compound: CC[C@H](C)[C@H](NC(=O)[C@H](CCCCN)NC(=O)[C@@H](N)CCCCN)C(=O)N[C@@H](CC(N)=O)C(=O)N[C@@H](CC(N)=O)C(=O)N[C@H](C(=O)N[C@H](C(=O)N[C@@H](CC(C)C)C(=O)N[C@@H](CO)C(=O)NCC(=O)N[C@@H](CC(C)C)C(=O)N[C@@H](CC(=O)O)C(=O)N[C@@H](CO)C(=O)N[C@H](C(=O)N[C@@H](C)C(=O)N[C@@H](CO)C(=O)N[C@@H](Cc1ccccc1)C(=O)N[C@@H](CO)C(=O)O)C(C)C)[C@@H](C)CC)[C@@H](C)O [KKINNTILSGLDSVASFS]

- MIC [8]: > 100 µM
- MIC [9]: > 100 µM
- MIC [10]: > 100 µM
- MIC [11]: > 100 µM
- MIC [12]: ≥ 100 µM
- MIC [6]: ≥ 100 µM
Compound: CC[C@H](C)[C@H](NC(=O)[C@H](CC(=O)O)NC(=O)[C@H](CCCCN)NC(=O)[C@H](C)NC(=O)[C@H](C)NC(=O)CNC(=O)[C@H](CCCCN)NC(=O)[C@H](CC(C)C)NC(=O)[C@@H](NC(=O)[C@H](CC(=O)O)NC(=O)[C@@H](NC(=O)[C@H](C)NC(=O)CN)C(C)C)[C@@H](C)CC)C(=O)N[C@@H](C)C(=O)NCC(=O)N[C@@H](Cc1cnc[nH]1)C(=O)N[C@@H](CC(C)C)C(=O)N[C@@H](C)C(=O)N[C@@H](CO)C(=O)N[C@@H](CCCCN)C(=O)N[C@H](C(=O)N[C@@H](CCSC)C(=O)N[C@@H](CC(N)=O)C(=O)N[C@@H](CCCCN)C(=O)N[C@@H](CC(C)C)C(N)=O)C(C)C [GAVDILKGAAKDIAGHLASKVMNKL]

- MIC [8]: 50 µM (≈ 130 µg/mL)
- MIC [9]: 12.5 µM (≈ 32.4 µg/mL)
- MIC [10]: 100 µM (≈ 259 µg/mL)
- MIC [11]: 50 µM (≈ 130 µg/mL)
- MIC [12]: 25 µM (≈ 64.8 µg/mL)
- MIC [6]: ≥ 50 µM
Compound: CC[C@H](C)[C@H](NC(=O)[C@H](CC(=O)O)NC(=O)[C@H](CCCCN)NC(=O)[C@H](CC(C)C)NC(=O)[C@H](C)NC(=O)CNC(=O)[C@H](CCCCN)NC(=O)[C@H](CC(C)C)NC(=O)[C@@H](NC(=O)[C@H](CC(=O)O)NC(=O)[C@@H](NC(=O)[C@@H](NC(=O)CN)C(C)C)C(C)C)[C@@H](C)CC)C(=O)N[C@@H](C)C(=O)NCC(=O)N[C@@H](Cc1cnc[nH]1)C(=O)N[C@@H](CC(C)C)C(=O)N[C@@H](C)C(=O)N[C@@H](CO)C(=O)N[C@@H](CCCCN)C(=O)N[C@H](C(=O)N[C@@H](CCSC)C(=O)N[C@@H](CC(N)=O)C(=O)N[C@@H](CCCCN)C(=O)N[C@@H](CC(C)C)C(N)=O)C(C)C [GVVDILKGALKDIAGHLASKVMNKL]
